Here are results for two molecules from patent publication US10208046B2, “Nitrogen-containing heterocyclic compound” (Takeda Pharmaceutical Company Limited, priority 2014, dated 2019).

For assay [1], the system named is IP1 production in hippocampi. The experiment in a line: Measurement of myo-inositol 1 phosphate (IP1) in rat hippocampi after oral administration. Format: in vivo, male Long-Evans rats. As to conditions: rat hippocampus IP1/protein ratio, Vehicle group as 100%. As to the method: Measurement of Myo-Inositol 1 Phosphate (IP1)
Animals used were male Long-Evans rats. They were used after acclimation for at least 1 week. Test compounds were suspended in 0.5% (w/v) aqueous methylcellulose solution, and the suspension was orally administered to the rats. After a given time, lithium chloride was dissolved in saline and subcutaneously administered into the rats. After a given time, their bilateral hippocampi were isolated from the rats, and the wet weight thereof was measured. The isolated hippocampi were homogenized with HEPES buffer, followed by centrifugation. The IP1 and protein concentrations in the supernatant were measured by IP-One HTRF(R) assay kit (Cisbio Bioassays) and BCA protein assay kit (Thermo Scientific), respectively. The level of the IP1 production was expressed as the ratio of the concentration of IP1 to that of protein. The increase rate of the IP1 production was shown as a relative value when Vehicle administration group as 100%.

Assay [2] deals with Scopolamine-induced memory deficits models. As to the kind of experiment: Novel object recognition test. Format: in vivo, male Long-Evans rats. The conditions noted are these: scopolamine 0.1 mg/kg s.c., retention trial 4 hr later, mean±standard error. As to the method:
Novel Object Recognition Test Novel object recognition test is comprised of two trials called the acquisition and the retention trials. Scopolamine-induced memory deficits models were used for the test, and animals used were male Long-Evans rats (7-week-old). On the day before the test, for acclimation, the rats were allowed to freely move about the test box (40×40×50 cm) for 10 minutes. On the test day, the rats were acclimated to the test room for about 1 hr prior to the test. The test compounds were orally administered to the rats in a single dose 2 hours before the acquisition trial. For induction of learning and memory deficits, scopolamine (0.1 mg/kg) was subcutaneously administered into the rats 30 min before the acquisition trial. For the acquisition trial, two identical objects (A1, A2) were placed in the test box. The rats were put in the test box for 3 min, and the duration exploring each object was measured. The retention trial was performed 4 hr after the acquisition trial. […] The duration for exploring each object in the acquisition trial and the retention trial was measured, and the exploration rate of novel object was calculated. The exploration rate of novel object was expressed as (the duration exploring the novel object)/[(the duration exploring the novel object)+(the duration exploring the familiar object)]×100(%) at mean±standard error.

The target of assay [3] is T1, human M1 receptor (hCHRM1) (Homo sapiens, UniProt P11229).
T1 construct: expressed in transfected cells
T1 sequence (P11229 1-460): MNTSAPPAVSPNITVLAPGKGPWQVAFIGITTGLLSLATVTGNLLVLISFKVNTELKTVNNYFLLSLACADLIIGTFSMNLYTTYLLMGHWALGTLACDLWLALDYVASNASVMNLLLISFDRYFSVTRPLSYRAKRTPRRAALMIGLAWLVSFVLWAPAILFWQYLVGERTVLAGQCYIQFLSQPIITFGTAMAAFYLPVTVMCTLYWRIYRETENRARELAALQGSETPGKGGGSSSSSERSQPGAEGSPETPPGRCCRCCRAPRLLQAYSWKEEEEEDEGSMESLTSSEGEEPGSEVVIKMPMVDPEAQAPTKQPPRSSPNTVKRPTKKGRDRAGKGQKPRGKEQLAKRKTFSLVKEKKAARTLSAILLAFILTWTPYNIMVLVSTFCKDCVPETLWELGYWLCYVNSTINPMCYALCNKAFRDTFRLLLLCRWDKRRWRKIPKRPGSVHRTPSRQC
The experiment in a line: Measurement of M1 receptor positive allosteric modulator (M1PAM) activity, calcium fluorescence in CHO-K1 cells.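 As to EC50: potency reported as IP value in nM.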 It counts as cell-based. The conditions noted are these: for activity (%) at 10 μM: 10 μM test compound with acetylcholine at EC20, 100% = acetylcholine 1 μM, 0% = DMSO; for EC50: inflection point in the concentration-dependent curve, acetylcholine at EC20 (final 0.6-0.8 nM), CHO-K1 cells expressing human M1, Fluo-4, FLIPRtetra, read-out: IP value. The essentials: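 CHO-K1 cells stably expressing human M1, Fluo-4 loaded, treated with compound plus acetylcholine at EC20 (final 0.6-0.8 nM); calcium fluorescence read by FLIPR over 1 min. Activity scaled to 1 μM acetylcholine (100%) and DMSO (0%); IP = inflection point of concentration-response curve.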

Turning to `Cc1nn(C)cc1-c1ccc(CN2Cc3ccnc(OCC(F)F)c3C2=O)cc1` [Example 6, 4-(2,2-difluoroethoxy)-2-(4-(1,3-dimethyl-1H-pyrazol-4-yl)benzyl)-1,2-dihydro-3H-pyrrolo[3,4-c]pyridin-3-one], the “increase rate (% of Vehicle)” value in assay [1] (30 mg/kg oral) was 38 % of Vehicle. For the same molecule, in assay [2] (3 mg/kg oral single dose 2 hours before acquisition trial), the “exploration rate of novel object (%)” value is 58.75±2.01%. Moreover, the “exploration rate of novel object (%)” value in assay [2] (10 mg/kg oral single dose 2 hours before acquisition trial) is 52.48±2.28%. Moreover, in assay [3], the “activity (%) at 10 μM” value came out at 109% and the EC50 was 70 nM.

For the molecule `Cc1nn(C)cc1-c1ccc(CN2Cc3ncnc(OCC(C)(F)F)c3C2=O)c(F)c1` [Example 23, 4-(2,2-difluoropropoxy)-6-(4-(1,3-dimethyl-1H-pyrazol-4-yl)-2-fluorobenzyl)-6,7-dihydro-5H-pyrrolo[3,4-d]pyrimidin-5-one], the “increase rate (% of Vehicle)” value in assay [1] (3 mg/kg oral) was 27 % of Vehicle. In assay [3], the “activity (%) at 10 μM” value came out at 94% and the EC50 came to 6 nM.
